# Test results taken from patent publication US8980951B2, “Sesquiterpenes for antifungal applications” (Kansas State University Research Foundation, priority 2011, dated 2015).
# Test system: A. nidulans, C. albicans, C. albicans 95-158 Flu-R, Cryp. neomormans, Candida krusei, and C. glabrata
# Assay: Fungicidal test, viability of treated fungal cells spotted on YPD agar
# Type: cell-based
# Conditions: after 72 h exposure
row,SMILES,resistance in treated fungi
1,"CC1=CC[C@H]2C(C)(C)CCC[C@]2(C)[C@H]1CO [drimenol, (−)-drimenol]",not observed
2,"C=C1CC[C@H]2C(C)(C)CCC[C@]2(C)[C@H]1CO [Albicanol, (+)-albicanol]",not observed
